Assay [1] concerns the target T1, rat B1R (bradykinin receptor 1) (Rattus norvegicus, UniProt P97583).
T1 construct: expressed in transfected cells; host or cells: CHO K1 cells
T1 sequence (P97583 1-337): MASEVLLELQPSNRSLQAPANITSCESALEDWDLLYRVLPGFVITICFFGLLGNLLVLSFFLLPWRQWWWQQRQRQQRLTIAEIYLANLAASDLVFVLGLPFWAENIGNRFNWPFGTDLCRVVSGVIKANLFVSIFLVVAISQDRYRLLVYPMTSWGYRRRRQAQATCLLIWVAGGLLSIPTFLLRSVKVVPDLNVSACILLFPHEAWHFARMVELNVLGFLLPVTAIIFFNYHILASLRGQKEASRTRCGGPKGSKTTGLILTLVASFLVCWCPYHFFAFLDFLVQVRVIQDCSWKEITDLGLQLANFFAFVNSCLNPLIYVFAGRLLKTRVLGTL
Kind of assay: FLIPR Ca2+ assay (Fluo-4) on CHO K1 cells stably transfected with the B1R gene of the rat (rB1R cells): % inhibition at 10 μM / IC50, agonist Des-Arg9-bradykinin. The format is cell-based. The conditions noted are these: CHO-K1, rat B1R. Summed up:
(§1)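 Peak fluorescence counts read on FLIPR (λex 488, λem 540 nm) after two additions: compound first, then agonist at EC80 after 10–20 min. Human line challenged with Lys-Des-Arg9-bradykinin, rat line with Des-Arg9-bradykinin. Suppression of Ca2+ inflow expressed as % of maximum inhibition.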

Assay [2] has as its target T2, human B1R (bradykinin receptor 1) (Homo sapiens, UniProt P46663).
T2 construct: expressed in transfected cells; host or cells: CHO K1 cells
T2 sequence (P46663 1-353): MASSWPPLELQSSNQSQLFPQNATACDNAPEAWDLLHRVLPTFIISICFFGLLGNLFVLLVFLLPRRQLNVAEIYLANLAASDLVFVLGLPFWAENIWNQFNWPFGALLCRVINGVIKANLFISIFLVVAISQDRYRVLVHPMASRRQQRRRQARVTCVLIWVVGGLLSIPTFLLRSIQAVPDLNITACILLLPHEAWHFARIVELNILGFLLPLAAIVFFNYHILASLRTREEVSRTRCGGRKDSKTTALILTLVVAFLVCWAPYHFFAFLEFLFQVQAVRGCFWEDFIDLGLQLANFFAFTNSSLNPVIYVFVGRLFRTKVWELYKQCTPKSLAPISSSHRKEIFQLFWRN
Kind of assay: FLIPR Ca2+ assay (Fluo-4) on CHO K1 cells stably transfected with the human B1R gene (hB1R cells): % inhibition at 10 μM / IC50, agonist Lys-Des-Arg9-bradykinin. The assay is classed as cell-based. The settings on record: CHO-K1, human B1R. The procedure, abridged: as §1

For `Cc1cccc(C)c1C(=O)NC1CCc2ccc(C(=O)N3CCC4(CC3)CCN(c3ccncc3)CC4)cc21` (centres unmarked) [IND_CC-294, 2,6-Dimethyl-N-[6-(9-pyridin-4-yl-3,9-diazaspiro[5.5]undecane-3-carbonyl)-2,3-dihydro-1H-inden-1-yl]-benzamide], the figures for the inhibition at 10 µM in assay [1] and in assay [2] were 105% and 99%, respectively.
In the case of `Cc1cccc(C)c1C(=O)NC1CCc2ccc(C(=O)N3CCC4(CC3)CCN(c3ccncc3)C4)cc21` (centres unmarked) [IND_CC-295, 2,6-Dimethyl-N-[6-(2-pyridin-4-yl-2,8-diazaspiro[4.5]decane-8-carbonyl)-2,3-dihydro-1H-inden-1-yl]-benzamide], the inhibition at 10 µM in assay [1] was 106%; in assay [2], 96%.
With `COc1ccc(C(=O)N(C)C2CCc3ccc(C(=O)N4CCC5(CC4)CCN(c4ccncc4)CC5)cc32)c(F)c1` (centres unmarked) [IND_CC-296, 2-Fluoro-4-methoxy-N-methyl-N-[6-(9-pyridin-4-yl-3,9-diazaspiro[5.5]undecane-3-carbonyl)-2,3-dihydro-1H-inden-1-yl]-benzamide], the inhibition at 10 µM in assay [1] was found to be 103%; in assay [2], 59%.
Turning to `Cc1cc(OC(F)(F)F)ccc1C(=O)N(C)C1CCc2ccc(C(=O)N3CCC4(CC3)CCN(c3ccncc3)CC4)cc21` (centres unmarked) [IND_CC-299, N,2-Dimethyl-N-[6-(9-pyridin-4-yl-3,9-diazaspiro[5.5]undecane-3-carbonyl)-2,3-dihydro-1H-inden-1-yl]-4-(trifluoromethyloxy)-benzamide], the figures for the inhibition at 10 µM in assay [1] and in assay [2] were 106% and 27%, respectively.
For the molecule `CN(C(=O)c1cc(Cl)ccc1C(F)(F)F)C1CCc2ccc(C(=O)N3CCC4(CC3)CCN(c3ccncc3)CC4)cc21` (centres unmarked) [IND_CC-301, 5-Chloro-N-methyl-N-[6-(9-pyridin-4-yl-3,9-diazaspiro[5.5]undecane-3-carbonyl)-2,3-dihydro-1H-inden-1-yl]-2-(trifluoromethyl)-benzamide], the values for the inhibition at 10 µM in assay [1] and in assay [2] were 107% and 94%, respectively.
The matching figures for `O=C(NC1CCc2ccc(C(=O)N3CCC4(CC3)CCN(c3ccncc3)CC4)cc21)c1cc(Cl)ccc1C(F)(F)F` (centres unmarked) [IND_CC-302, 5-Chloro-N-[6-(9-pyridin-4-yl-3,9-diazaspiro[5.5]undecane-3-carbonyl)-2,3-dihydro-1H-inden-1-yl]-2-(trifluoromethyl)-benzamide]: 106% and 99%.
The matching figures for `O=C(NC1CCc2ccc(C(=O)N3CCC4(CC3)CCN(c3ccncc3)C4)cc21)c1cc(Cl)ccc1C(F)(F)F` (centres unmarked) [IND_CC-303, 5-Chloro-N-[6-(2-pyridin-4-yl-2,8-diazaspiro[4.5]decane-8-carbonyl)-2,3-dihydro-1H-inden-1-yl]-2-(trifluoromethyl)-benzamide]: 106% and 92%.
Take `Cc1ccc(C(=O)N(C)C2CCc3ccc(C(=O)N4CCC5(CC4)CCN(c4ccncc4)CC5)cc32)c(F)c1` (centres unmarked) [IND_CC-304, 2-Fluoro-N,4-dimethyl-N-[6-(9-pyridin-4-yl-3,9-diazaspiro[5.5]undecane-3-carbonyl)-2,3-dihydro-1H-inden-1-yl]-benzamide]: the figures for the inhibition at 10 µM in assay [1] and in assay [2] were 104% and 49%, respectively.
As for `Cc1ccc(C(=O)NC2CCc3ccc(C(=O)N4CCC5(CC4)CCN(c4ccncc4)CC5)cc32)c(F)c1` (centres unmarked) [IND_CC-305, 2-Fluoro-4-methyl-N-[6-(9-pyridin-4-yl-3,9-diazaspiro[5.5]undecane-3-carbonyl)-2,3-dihydro-1H-inden-1-yl]-benzamide], the inhibition at 10 µM in assay [1] was 104%; in assay [2], 67%.
As for `Cc1cccc(C)c1C(=O)NC1CCc2ccc(C(=O)N3CCC4(CC3)CCN(c3ccc(C(F)(F)F)cc3)CC4)cc21` (centres unmarked) [IND_CC-307, 2,6-Dimethyl-N-[6-[9-[4-(trifluoromethyl)-phenyl]-3,9-diazaspiro[5.5]undecane-3-carbonyl]-2,3-dihydro-1H-inden-1-yl]-benzamide], the values for the inhibition at 10 µM in assay [1] and in assay [2] were 103% and 14%, respectively.
As for `Cc1cccc(C)c1C(=O)NC1c2cc(C(=O)N3CCC4(CC3)CCN(c3ccncc3)CC4)ccc2CC1(C)C` (centres unmarked) [IND_CC-308, N-[2,2-Dimethyl-6-(9-pyridin-4-yl-3,9-diazaspiro[5.5]undecane-3-carbonyl)-1,3-dihydro-inden-1-yl]-2,6-dimethyl-benzamide], the results for the inhibition at 10 µM in assay [1] and in assay [2] were 106% and 97%, respectively.
As to `Cc1cccc(C)c1C(=O)NC1CC(C)(C)c2ccc(C(=O)N3CCC4(CC3)CCN(c3ccncc3)CC4)cc21` (centres unmarked) [IND_CC-309, N-[3,3-Dimethyl-6-(3-pyridin-4-yl-3,9-diazaspiro[5.5]undecane-9-carbonyl)-1,2-dihydro-inden-1-yl]-2,6-dimethyl-benzamide], the inhibition at 10 µM stood at 104% in assay [1] and 97% in assay [2].
With `Cc1cccc(C)c1C(=O)NC1CCc2ccc(C(=O)N3CCC4(CCN(c5ccncc5)CC4)C3)cc21` (centres unmarked) [IND_CC-310, 2,6-Dimethyl-N-[6-(8-pyridin-4-yl-2,8-diazaspiro[4.5]decane-2-carbonyl)-2,3-dihydro-1H-inden-1-yl]-benzamide], the values for the inhibition at 10 µM in assay [1] and in assay [2] were 104% and 100%, respectively.
On the same counts, the results for `COc1ccc(C(=O)NC2CC(C)(C)c3ccc(C(=O)N4CCC5(CC4)CCN(c4ccncc4)CC5)cc32)c(F)c1` (centres unmarked) [IND_CC-312, N-[3,3-Dimethyl-6-(3-pyridin-4-yl-3,9-diazaspiro[5.5]undecane-9-carbonyl)-1,2-dihydro-inden-1-yl]-2-fluoro-4-methoxy-benzamide] are 102% and 44%.
`O=C(NC1CCc2ccc(C(=O)N3CCC4(CCN(Cc5ccc[nH]5)CC4)CC3)cc21)c1ccccc1Cl` (centres unmarked) [IND_CC-507, 2-Chloro-N-[6-[9-(1H-pyrrol-2-yl-methyl)-3,9-diazaspiro[5.5]undecane-3-carbonyl]-2,3-dihydro-1H-inden-1-yl]-benzamide]: the inhibition at 10 µM was determined as 100% in assay [1] and 2% in assay [2].
On the same counts, the results for `Cn1cncc1CN1CCC2(CC1)CCN(C(=O)c1ccc3c(c1)C(NC(=O)c1ccccc1Cl)CC3)CC2` (centres unmarked) [IND_CC-526, 2-Chloro-N-[6-[9-[(3-methyl-3H-imidazol-4-yl)-methyl]-3,9-diazaspiro[5.5]undecane-3-carbonyl]-2,3-dihydro-1H-inden-1-yl]-benzamide] are 87% and 25%.
On to `Cc1nc(CN2CCC3(CC2)CCN(C(=O)c2ccc4c(c2)C(NC(=O)c2ccccc2Cl)CC4)CC3)c[nH]1` (centres unmarked) [IND_CC-528, 2-Chloro-N-[6-[9-[(2-methyl-1H-imidazol-4-yl)-methyl]-3,9-diazaspiro[5.5]undecane-3-carbonyl]-2,3-dihydro-1H-inden-1-yl]-benzamide], for which the inhibition at 10 µM in assay [1] is 102%; in assay [2], 24%.
On to `N#Cc1ccccc1CN1CCC2(CC1)CCN(C(=O)c1ccc3c(c1)C(NC(=O)c1ccccc1Cl)CC3)CC2` (centres unmarked) [IND_CC-535, 2-Chloro-N-[6-[9-[(2-cyano-phenyl)-methyl]-3,9-diazaspiro[5.5]undecane-3-carbonyl]-2,3-dihydro-1H-inden-1-yl]-benzamide], for which the inhibition at 10 µM in assay [1] is 90%; in assay [2], 49%.
Turning to `O=C(NC1CCc2ccc(C(=O)N3CCC4(CCN(Cc5ccc(F)c(F)c5)CC4)C3)cc21)c1ccccc1Cl` (centres unmarked) [IND_CC-542, 2-Chloro-N-[6-[8-[(3,4-difluoro-phenyl)-methyl]-2,8-diazaspiro[4.5]decane-2-carbonyl]-2,3-dihydro-1H-inden-1-yl]-benzamide], the inhibition at 10 µM in assay [1] is 104%; in assay [2], 27%.
As for `Cc1nc[nH]c1CN1CCC2(CC1)CCN(C(=O)c1ccc3c(c1)C(NC(=O)c1ccccc1Cl)CC3)C2` (centres unmarked) [IND_CC-553, 2-Chloro-N-[6-[8-[(5-methyl-3H-imidazol-4-yl)-methyl]-2,8-diazaspiro[4.5]decane-2-carbonyl]-2,3-dihydro-1H-inden-1-yl]-benzamide], the results for the inhibition at 10 µM in assay [1] and in assay [2] were 90% and -2%, respectively.
The matching figures for `O=C(NC1CCc2ccc(C(=O)N3CCC4(CCN(Cc5ccc(F)cc5Cl)CC4)C3)cc21)c1ccccc1Cl` (centres unmarked) [IND_CC-556, 2-Chloro-N-[6-[8-[(2-chloro-4-fluoro-phenyl)-methyl]-2,8-diazaspiro[4.5]decane-2-carbonyl]-2,3-dihydro-1H-inden-1-yl]-benzamide]: 100% and 7%.
Consider `N#Cc1cccc(CN2CCC3(CC2)CCN(C(=O)c2ccc4c(c2)C(NC(=O)c2ccccc2Cl)CC4)C3)c1` (centres unmarked) [IND_CC-562, 2-Chloro-N-[6-[8-[(3-cyano-phenyl)-methyl]-2,8-diazaspiro[4.5]decane-2-carbonyl]-2,3-dihydro-1H-inden-1-yl]-benzamide], for which the inhibition at 10 µM was 104% in assay [1] and 27% in assay [2].

By inhibition is commonly meant the drop in the measured response relative to a control, in per cent.

The record behind these values is patent US8455475B2 (Gruenenthal GmbH, priority 2009, dated 2013).
